Measurements taken from patent US20080199546A1, “Anti-resorptive and bone building dietary supplements and methods of use” (priority 2006, published 2008).

Tests used:
[1] = system: BMP-2 promoter; experiment: BMP2 promoter assay (luciferase reporter); format: cell-based, murine; settings: summary of Table 1
[2] = system: RANK-L; experiment: Production/release of RANK-L protein (ELISA, IL-1b stimulated MG-63 cells); format: cell-based; settings: Homo sapiens, MG-63, 1 μg/ml
Protocol: Weigh between 150 to 250 mg of each ingredient into a 15 ml conial bottomed tube. […] For solvent control, mix 1.5 ml DMSO, 0.9 ml ethanol, and 0.6 ml water. Vortex thoroughly. Sonicate for 10 minute in water bath, room temperature. Vortex thoroughly again. Dilute ingredient stocks in fresh phenol red-free media. Human osteosarcoma cell line, MG-63 (ATCC# CRL-1427), is maintained in phenol-red containing MEM (as recommended by ATCC) at 37° C. and 5% CO2. Twenty-four hours prior to experimentation, 3×10^5 cells are seeded in 12-well plates in phenol-red free MEM. Spent medium is removed from wells and MG-63 cells (ATCC # CRL-1427) are pretreated with 1, 0.1, 0.01 μg/ml of each test ingredient or 30 ng/ml TGF-beta (+ control) for 4 hours at 37° C., 5% CO2. Stock solution of TGF-beta is 30 μg/ml (from R&D Systems, cat# 100-B-001). After pretreatment incubation period, […] IL-1b (Calbiochem (catalog # 407615), and stock solution at 10 μg/ml, cat # 407615) were added to the cell cultures for 18 hours at 37° C. Supernatant media from the treated and stimulated cells were removed and total RANK-L proteins measured using RANK-L ELISA (in triplicate) as described by manufacturer (from APOTECH, catalog # APO-54N-016-k101). The resulting protein quantity was compared to that of media (null) treated stimulated cells to determine percent decrease in total RANK-L protein.

[3] = system: RANK-L gene expression; experiment: RANK-L gene expression (qPCR, IL-1b stimulated MG63 cells); format: cell-based, human; settings: IL1B 3 ng/ml alone (stimulus)
Protocol: Punicalagin test samples are extracted from pomegranates, including from pomegranate peels, skins, fleshy fruit, and seeds using 100% DMSO at 100 mg/ml. Particulate matter in the extraction is not removed. The punicalagin test samples are diluted in MEM without phenol red (estrogenic) and 0.1% FBS to lower background signaling to ten times the final concentrations. Final DMSO concentrations are kept below 0.2% and are kept constant during treatments. DMSO solvent control is used in the untreated group.
MG63 cells (ATCC # […]), a human-derived osteosarcoma cell line, are plated at 200,000 cells per well in a 12 well plate with phenol red free MEM at 10% FBS. The next day the media is changed to phenol red free MEM at 0.1% FBS. The cells are incubated for four hours and then treated with punicalagin test samples at concentrations of 1, 10, and 100 μg/ml.
After four hours of treatment, IL-1b (Calbiochem (catalog # 407615), stock solution at 10 μg/ml, cat # 407615) are added to a final concentration of 3 ng/mL. […]
After 16 hours the cells are lysed and the RNA is extracted from the cells with the RNasy purification kit (Qiagen). RNA is reverse transcribed to cDNA and quantified by qPCR using 2-step qRT-PCR reagents (Invitrogen), and 4 μL of purified RNA. […]
RANK-L and GAPDH gene expression Ct data are obtained. RNA is quantified with adjustments for GAPDH expression. […]

[4] = system: MMP9 (type IV collagenase); experiment: MMP9 (type IV collagenase) protein expression, keratinocyte/fibroblast co-culture stimulated with IL-1B; format: cell-based; settings: IL1B 10 ng/ml alone (stimulus); untreated = 1.0
Protocol: Keratinocytes and fibroblasts were co-cultured in DMEM containing 0.5% BSA. Co-cultures were exposed to various concentrations of punicalagins (ranging from 0.1%-10%) extracted from pomegranates. Specifically, the ability of the pomegranate extracts to inhibit type IV collagenase protein (matrix metalloproteinase-9/MMP9) expression at concentrations of 1.0 μg/ml, 10 μg/ml, and 100 μg/ml were tested. Following exposure to the pomegranate extracts, the co-culture cells were stimulated with 10 ng/ml of IL-1B for 18 hours. Following stimulation with IL-1B for 18 hours, and MMP9 concentration was determined in the media as shown below in Table 8.

Activation of the BMP-2 promoter (in words) [1] | MMP9 expression (fold of untreated) [4] | Compound | inhibition at 1 µg/mL [2] [%] | RANK-L Expression (fold increase) [3] [fold increase]
most potent activators |  | CC(C)Oc1ccc2c(=O)c(-c3ccccc3)coc2c1 [I, 7-isopropoxy isoflavone] | 0.8 ± 0.3 | 
 | 1.65 | IL1B: IL-1b (Calbiochem), stimulus of RANK-L and MMP9 expression |  | 3.3 ± 0
most potent activators |  | O=c1c(O)c(-c2ccc(O)c(O)c2)oc2cc(O)cc(O)c12 [Q, Quercetin] |  | 
